The values below come from patent US20250040546A1, “DETERGENT FOR VIRAL INACTIVATION” (Bristol-Myers Squibb Company, priority 2021, published 2025).

Like-named read-outs stand apart in the source and are kept apart here.

Data set [1] deals with X-MuLV. The data set can be described thus: Detergent-mediated virus inactivation of X-MuLV in mAb1 harvest (pfu-based LRV). Conditions: for Log reduction value (LRV) of X-MuLV: 60 minutes hold at 2-8° C. Format: cell-based, Xenotropic Murine Leukemia Virus. As for the experimental part: (§1) Three lipid-enveloped viruses X-MuLV, HSV-1 and A-MuLV (Amphotropic Murine Leukemia Virus) were investigated for VI in the cell culture fluid of a monoclonal antibody (mAb1) and a fusion protein (Fus1) for a range of detergents and detergent concentrations (FIG. 6). Protein concentration and buffer matrix were dictated by that in the harvest for the specific therapeutic and process. A temperature of 2-8° C. was used as a worst case for inactivation and incubation times of 0, 5 and 60 minutes were used to explore the kinetics of inactivation. Viral clearance was measured in units of Log Reduction Value (LRV) which was calculated from pfu (Plaque Forming Units) as follows
(§2) Virus inactivation studies were conducted for X-MuLV in mAb1 harvest, HSV-1 and A-MuLV in Fus1 harvest at 0, 5 and 60 minutes at 2-8° C. The inactivation studies for each condition were conducted in duplicates with results varying within 0.5 LRV. The lower of the two LRVS was plotted in FIG. 6 to remain conservative regarding the extent of inactivation. The error bars represent the assay variability.
The mechanism of detergent-mediated VI can share similarities with pH-mediated VI and is likely a characteristic of the detergent-protein-virus system under consideration. Detergents could unfold or denature specific viral surface glycoproteins that are critical for the host cell infection as is the case for X-MuLV [Brorson et al. (2003) Biotechnology and Bioengineering 82(3):321-329; Simons & Ehehalt (2002) Journal of Clinical Investigation 110(5):597-603]. Alternately, detergents could inactivate viruses such as HSV-1 through dissolution of the viral lipid envelope or preferential partitioning of the membrane protein into detergent micelles [Welling-Wester et al. (1998) Journal of chromatography A 816(1):29-37]. Three lipid-enveloped viruses commonly used for viral validation studies, X-MuLV, HSV-1 and A-MuLV (Amphotropic Murine Leukemia Virus), were investigated for VI. Any VI condition showing LRV ≥4.0 after a 60 minute hold at 2-8° C., worst case temperature for VI, was considered effective. The extent of inactivation from different detergents was compared with Triton X-100.

For data set [2] the following is noted: cited from earlier work.
The nature of data set [3]: Isoelectric point (pI). In kind it is physicochemical.
Data set [4] in a line: Sialic acid content of Fus1 and Fus2 Protein A eluates of detergent-spiked harvest. Format: physicochemical. Conditions: stated as within acceptable range. How it is done:
Sialic acids are neuraminic acids modified by the addition of an acetyl group (N-acetylneuraminic acid/NANA) or a glycol group (N-glycolylneuraminic acid/NGNA) .Sialic acid contents are reported as normalized molar ratios, which are the total moles of NANA and NGNA per mole of recombinant protein. The protein concentrations were determined by UV absorbance at 280 nm. Sialic acid content was determined by partial acidic hydrolysis using sulfuric acid at 0.1 N final concentration at 80° C. for 1 hour followed by reversed phase HPLC using Rezex Monosaccharide RHM HPLC column (Phenomenex, Catalog No. OOH-0132-KO with respective guard column (Phenomenex, Catalog No. 03B-0132-KO). Elution was conducted with 5 mM Sulfuric acid at 0.6 mL/min and 40° C.

Data set [5] deals with lipid-enveloped viruses. Kind of data set: Viral inactivation, summary statements (LRV equal or above 4 criterion). Format: cell-based. As to conditions: detergent below its CMC, e.g. 0.5×CMC; virus not named. From the text: The present disclosure relates to detergent-mediated inactivation of lipid-enveloped viruses. […] The current commercially available detergent for such process is Triton X-100.
Several environmentally friendly detergents for the viral inactivation step of biologics manufacturing processes have been identified in the art, e.g., Lauryldimethylamine Oxide (LDAO) and ECOSURF™ EH9. These systems for viral inactivation use a single detergent. The present disclosure provides a detergent mixture comprising two environmentally sustainable detergents: n-Octyl-β-D-Glucopyranoside (OG) and n-Dodecyl-β-D-Maltopyranoside (DDM). […] Accordingly, the disclosed combination of OG and DDM can be used as substitute of Triton X-100 for the viral inactivation step in the production of biologics, for example, in the process used to manufacture ORENCIA®.

Data set [6] addresses T1, Fus2 (Homo sapiens, UniProt P16410, A66Y/L141E).
T1 construct: made in house; host or cells: CHO
The data set can be described thus: Oxidation of Fus2 (tryptic digest RP-UPLC) after detergent spiking of harvest. Format: physicochemical. As to conditions: Fus2 harvest spiked with detergent at 1×CMC, protein A eluate. As for the experimental part:
(§3) The protein sample was denatured in denaturation buffer (8 M guanidine, 50 mM TRIS, pH 8.0) and the cystine disulfide bridges were reduced with dithiothreitol (200 mM DTT) followed by S-alkylation with iodoacetamide (400 mM IAM). The denatured, reduced protein was buffer-exchanged (50 mM TRIS, 10 mM CaCl2), pH 7.6) prior to digestion with trypsin. The resulting digested mixture was then analyzed by reverse-phase ultra-performance liquid chromatography (RP-UPLC) using UPLC BEH C18 Column, […], 130 angstrom, 2.1×100 mm (Waters, Catalog no. 186002352) with Mobile Phase A (0.1% TFA, 50 mM Methionine in HPLC Grade Water) and Mobile Phase B (0.1% TFA, 50 mM Methionine in 80% ACN and 20% HPLC grade water). Protein detection at 215 nm absorbance and fluorescent excitation/emission of 275 nm/303 nm and 280 nm/348 nm was used to quantify relative levels of oxidation and deamidation respectively.

The subject of data set [7] is fusion proteins Fus1 and Fus2. The data set can be described thus: SEC analysis of HMW formation and aggregation kinetics of fusion proteins with detergents. In kind it is physicochemical. As for the experimental part: Size exclusion chromatography (SEC) was performed in a Waters HPLC Alliance 2695 System using TSKgel G3000SWXL Column (Tosoh Bioscience, Catalogue no. 085430) with guard column (Tosoh Bioscience, Catalogue no. 08541) in line. A mobile phase of 0.2 M Sodium phosphate, monobasic, 0.9% NaCl, pH 7.0 was used with 20 μL injection volumes at 1 to 10 mg/mL target protein concentrations with a flow rate of 1 mL/minute. Tandem SEC was performed with 50 μL injection volumes with a flow rate of 0.5 mL/minute using 6 TSKgel G3000SWXL Column using 0.2 M KH2PO4, 0.9% NaCl, pH 6.8 as mobile phase.
Given N is the monomer species, No is the initial monomer % at time t=0, aggregation follows first order kinetics with k1 being the rate constant of aggregation as shown in Equation (1) (Derivation in Supplemental Information).

For data set [8], the target named is T2, Fus1 (Homo sapiens, UniProt P16410).
T2 construct: made in house; host or cells: CHO
The data set can be described thus: Oxidation of Fus1 (tryptic digest RP-UPLC) after detergent spiking of harvest. As to conditions: Fus1 harvest spiked with detergent at 1×CMC, protein A eluate. Format: physicochemical. As for the experimental part: as §3

The test system of data set [9] is B7.1 Ig. The data set can be described thus: Potency: Surface Plasmon Resonance binding of CTLA-4 domain of Fus1 to B7.1 Ig in presence of detergent. As to conditions: high concentration Fus1 DS; detergent at 10×CMC; 24 hours, room temperature. How it is done: The potency was determined by measuring the binding efficacy of the CTLA-4 (cytotoxic T-lymphocyte-associated protein 4) domain of the fusion proteins against the complementary binding domain of membrane protein B7.1 Ig, typically found on activated antigen-presenting cells (APC). Drug efficacy for the purified DS was evaluated using a Surface Plasmon Resonance assay; the binding efficacy of the CTLA-4 domain of Fus1 and Fus2 against a high concentration of the peripheral membrane protein B7.1 Ig was examined. Due to the influence of impurities on the binding efficacy, only DS was tested.

Data set [10] deals with A-MuLV. Kind of data set: Detergent-mediated virus inactivation of A-MuLV in Fus1 harvest (pfu-based LRV). In kind it is cell-based, Amphotropic Murine Leukemia Virus. As to conditions: detergent concentration not stated. As for the experimental part:
as §1, §2
The mechanism of detergent-mediated VI can share similarities with pH-mediated VI and is likely a characteristic of the detergent-protein-virus system under consideration. […]

The test system of data set [11] is HSV-1. Kind of data set: Detergent-mediated virus inactivation of HSV-1 in Fus1 harvest (pfu-based LRV). Format: cell-based, Herpes Simplex Virus type 1. Conditions: detergent concentration not stated.
The conditions of data set [12]: Slinde & Flatmark (1976); cited from earlier work.

T2 sequence (P16410 with tags, fused parts or gaps): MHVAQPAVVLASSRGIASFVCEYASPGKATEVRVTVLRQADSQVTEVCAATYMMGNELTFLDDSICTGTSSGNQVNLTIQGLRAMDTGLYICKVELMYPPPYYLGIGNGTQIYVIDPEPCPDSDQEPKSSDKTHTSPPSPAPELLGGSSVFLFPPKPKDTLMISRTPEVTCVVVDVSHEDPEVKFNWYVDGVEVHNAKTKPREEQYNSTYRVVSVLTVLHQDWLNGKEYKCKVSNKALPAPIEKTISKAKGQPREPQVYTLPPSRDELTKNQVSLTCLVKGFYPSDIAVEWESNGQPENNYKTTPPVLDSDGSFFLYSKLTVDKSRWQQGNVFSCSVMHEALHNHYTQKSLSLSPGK
T1 sequence (P16410 with tags, fused parts or gaps A66Y/L141E limits assumed): as the sequence (P16410 with tags, fused parts or gaps) above, with A29Y, L104E counted along it

For the molecule `CCCCCCCCCCO[C@@H]1O[C@H](CO)[C@@H](O[C@H]2O[C@H](CO)[C@@H](O)[C@H](O)[C@H]2O)[C@H](O)[C@H]1O` [DM, n-Decyl-β-D-Maltopyranoside], the “Log reduction value (LRV) of X-MuLV” value in data set [1] (detergent at 10×CMC) came out at 2.0 LRV.
`CCCCCCCCCCCC[N+](C)(C)[O-]` [LDAO, Lauryldimethylamine Oxide]: the LRV in [2] (fusion protein at 2-8° C. (Conley et al.)) is given as about 3.0 LRV; in data set [2] (fusion protein at room temperature (Conley et al.)), about 4.0 LRV; in [2] (mAb under the same conditions, 2-8° C. (Conley et al.)), 4.0 LRV.
Molecule “Fus2: fusion protein belatacept (SEQ ID NO:2 proteins)” showed a pI in [3] of about 5.0. The “NANA (N-acetylneuraminic acid): protein molar concentration” value in data set [4] is reported as 6 to 8.5%.
Turning to “Fus1: fusion protein abatacept (CTLA4-Ig, SEQ ID NO:1 proteins)”, the pI in data set [3] is about 5.0. The “NANA (N-acetylneuraminic acid): protein molar concentration” value in data set [4] was in the range of 8 to 12%.
In the case of `CCCCCCCCO[C@@H]1O[C@H](CO)[C@@H](O)[C@H](O)[C@H]1O` [OG, n-Octyl-β-D-Glucopyranoside], the “Viral inactivation (defined as a LRV equal or above 4)” value in [5] is recorded as “insufficient for viral inactivation”. Further, the “Oxidation of Fus2” value in [6] is reported as “higher oxidation”. Moreover, in [7] (SEC, DS and clarified harvest of Fus1 and Fus2), the “HMW formation (rank among detergents)” value is recorded as “greatest”. For the same molecule, the “Rate of aggregation (rank among OG, DDM, LDAO)” value in data set [7] (high concentration DS of Fus1 and Fus2) is recorded as “fastest rate of aggregation”. Also, the “Oxidation of Fus1” value in [8] is “higher oxidation”. In data set [9], the “Potency (B7 binding efficiency relative to reference material)” value is given as “less than 60%”.
Consider Polysorbate 80 [PS80], for which the “Inactivation of X-MuLV” value in [1] (detergent concentration not stated) is given as “No inactivation”. Also, the “Inactivation of A-MuLV” value in [10] is “No inactivation”. Further, in [11], the “Inactivation of HSV-1” value is listed as “No inactivation”.
Turning to Triton X-100, the HLB value in data set [12] is recorded as 13.5. For the same molecule, the “Log reduction value (LRV) of X-MuLV” value in [1] (detergent at 1×CMC) and in data set [1] (detergent at 10×CMC) was at least 4.85±0.5 LRV in each case.
